Reference: US9416115B2, “Fused heterocyclic compounds as ion channel modulators” (Gilead Sciences, Inc., priority 2013, dated 2016)
Where two headings read alike, the source gives them in different places.

Columns and labels:
hNav1.1 (SCN1A) = hNav1.1 (SCN1A) (Homo sapiens, UniProt P35498); assay: Use-dependent inhibition of the CNS Nav1.1 sodium channel; format: cell-based; details: use-dependent block, 25 Hz, pulse 20, read-out: Nav1.1 UDB 25 Hz 10 uM
Method: HEK-293 cells stably expressing wild-type (WT) hNav1.1 (SCN1A, NCBI# AB09354) were obtained from Millipore (Cat. # CYL3009) were used to record INa. Cells are maintained with standard tissue culture procedures and stable channel expression is maintained with 400 ug/mL G418 in the culture medium. Unless otherwise noted, all reagents are purchased from Sigma-Aldrich (St Louis, Mo., U.S.A.).
Assays measuring Use-Dependent Block (UDB) of Nav1.2 are performed on an automated electrophysiology platform, QPatch 16X or QPatch HT (Sophion Bioscience, Copenhagen, Denmark), using the whole cell patch clamp technique to measure currents through the cell membrane. Series resistance compensation is set to 100% and series resistance and whole-cell compensation are performed automatically. Currents stored in the Sophion Bioscience Oracle database (Sophion Bioscience, Copenhagen, Denmark). Analysis is performed using QPatch Assay software and data are compiled in Excel 2010 (Microsoft, Seattle, Wash., U.S.A.).
The internal (pipette) solution consists of (in mM) 105 CsF, 10 NaF, 20 CsCl, 2 EGTA, 10 HEPES, 10 Dextrose with a pH of 7.35 and osmolarity of 300 mOsmol/kg. The external (bath) solution contains in (mM): 145 NaCl, 4 KCl, 1.8 CaCl2, 1 MgCl2, 10 dextrose, 10 HEPES, with a pH of 7.35 and osmolarity of 310 mOsmol/kg. Experiments are carried out at 23-25° C.
Compound stocks are routinely made by the Gilead Sample Bank in vials to 10 mM in dimethyl sulfoxide (DMSO). In some cases, when compounds are not soluble in DMSO, they are made in 100% ethanol. Stocks are sonicated as necessary. […]
Cells are allowed to stabilize for 10 min after establishment of the whole-cell configuration before current is measured. The test compound is applied 2 times at 60 second intervals. After the second compound addition, a 200 second wait period was imposed to allow for equilibration. Leak currents are subtracted by using an online P/4 procedure and all currents are low-pass Bessel filtered at 5 kHz and digitized at […].
Use-dependent block of Nav1.2 peak current is measured during pulse number 20 of a voltage pulse train (0 mV, 20 ms, 20 pulses, 25 Hz) from a holding potential of −120 mV. Currents are normalized to the peak current recorded in response to the first pulse in each frequency train. The voltage protocol for UDB was performed in the absence and presence of compound and percentage inhibition was calculated with respect to the compound free condition. Results are presented as mean percentage inhibition and data analysis is performed using QPatch Assay Software 4.0, and Excel 2002 (Microsoft, Seattle, Wash., U.S.A.).

[1] = target: wild-type human cardiac sodium channel, hNav1.5 (Homo sapiens, UniProt Q14524); assay: Peak INa screening assay (tonic block and use-dependent block); format: cell-based
Method: The cardiac late sodium current (Late INa) and peak sodium current (Peak INa) assays are performed on an automated electrophysiology platform, QPatch 16X or QPatch HT (Sophion Bioscience, Copenhagen, Denmark) using the whole cell patch clamp technique to measure currents through the cell membrane. The assay uses an HEK293 (human embryonic kidney) cell line heterologously expressing the wild-type human cardiac sodium channel, hNav1.5, purchased from Millipore (Billerica, Mass.). No beta subunits were coexpressed with the Na channel alpha subunit. Cells are maintained with standard tissue culture procedures and stable channel expression is maintained with 400 μg/mL Geneticin in the culture medium. Experiments are carried out at 23-25° C.
For both the Late INa and Peak INa assays, series resistance compensation is set to 100% and series resistance and whole-cell compensation are performed automatically. Currents are digitized at 25 kHz and low-pass filtered at 5 kHz and stored in the Sophion Bioscience Oracle database (Sophion Bioscience, Copenhagen, Denmark). Analysis is performed using QPatch Assay software and data are compiled in Excel 2010 (Microsoft, Seattle, Wash., U.S.A.).
Compound stocks are routinely made by the Gilead Sample Bank in vials to 10 mM in dimethyl sulfoxide (DMSO). In some cases, when compounds are not soluble in DMSO, they are made in 100% ethanol. Stocks are sonicated as necessary. The extracellular solution for screening Late INa is composed of: 140 mM NaCl, 4 mM KCl, 1.8 mM CaCl2, 1 mM MgCl2, 10 mM HEPES and 10 mM Dextrose with pH adjusted to 7.35 using NaOH. The intracellular solution contains: 105 mM CsF, 20 mM CsCl, 10NaF, 2 mM EGTA, 10 mM HEPES and 10 mM Dextrose with pH adjusted to 7.35 with CsOH. Compounds are diluted in extracellular solution using a MicroLab Nimbus (Hamilton Robotics, Reno, Nev.) to between 0.3 and 3 μM in glass vials and transferred to glass well plates before robotic addition to the cells. The 0 mM Na extracellular solution (0Na-ECF) used at the end of each experiment for the Late INa and Peak INa assays to measure baseline current contains: 140 Choline-Cl; 4 mM KCl, 1.8 mM CaCl2; 1 mM MgCl2; 10 mM HEPES and 10 mM Dextrose with pH was adjusted to 7.35 with CsOH.
Compounds were evaluated for their effect Nav1.5 Peak INa. It is contemplated that the compounds of Formula I avoid significant block of peak INa. Since the peak INa in the cells used herein can be very large, introducing artifacts in the recording, the concentration of Na^+ in the bath can be reduced to 40 mM by isosmotic replacement of Na^+ with Choline (see below).
Tonic Block (TB) of Peak INa was measured using a voltage step to −20 mV from a holding potential of −100 mV at a low stimulation frequency of 0.1 Hz. Use-Dependent Block (UDB) of Peak INa was measured during pulse number 50 of a pulse train (−20 mV, 20 ms, 50 pulses, 3 Hz) from a holding potential of −100 mV.
The extracellular solution for screening Peak INa is composed of: 40 mM NaCl, 100 mM Choline-Cl, 4 mM KCl, 1.8 mM CaCl2, 1 mM MgCl2 10 mM HEPES and 10 mM Dextrose with pH adjusted to 7.35 using NaOH. The intracellular solution used for the Peak INa assay is the same as outlined for the Late INa assay (see above).
After establishing the whole cell recording configuration, channels were stimulated to open with low frequency (0.1 Hz) so that the recording can be monitored and the extent to which the recording has stabilized can be assessed.
The test compound is then applied at 1 or 3 μM and was added 2 times at 60 second intervals. After the second compound addition, a 200 second wait period was imposed to allow for equilibration. Voltage protocols for TB and UDB are were performed in the absence and presence of compound and TB and UDB are calculated with respect to the compound free condition. Both TB and UDB were analyzed by incorporating rundown correction for the peak INa.

[2] = tonic block of Peak INa, 0.1 Hz, holding -100 mV, read-out: Peak TB 3 uM
[3] = use-dependent block of Peak INa, 3 Hz, pulse 50, read-out: Peak UDB 3 Hz 3 uM

wild-type human cardiac sodium channel, hNav1.5, sequence (Q14524 whole entry): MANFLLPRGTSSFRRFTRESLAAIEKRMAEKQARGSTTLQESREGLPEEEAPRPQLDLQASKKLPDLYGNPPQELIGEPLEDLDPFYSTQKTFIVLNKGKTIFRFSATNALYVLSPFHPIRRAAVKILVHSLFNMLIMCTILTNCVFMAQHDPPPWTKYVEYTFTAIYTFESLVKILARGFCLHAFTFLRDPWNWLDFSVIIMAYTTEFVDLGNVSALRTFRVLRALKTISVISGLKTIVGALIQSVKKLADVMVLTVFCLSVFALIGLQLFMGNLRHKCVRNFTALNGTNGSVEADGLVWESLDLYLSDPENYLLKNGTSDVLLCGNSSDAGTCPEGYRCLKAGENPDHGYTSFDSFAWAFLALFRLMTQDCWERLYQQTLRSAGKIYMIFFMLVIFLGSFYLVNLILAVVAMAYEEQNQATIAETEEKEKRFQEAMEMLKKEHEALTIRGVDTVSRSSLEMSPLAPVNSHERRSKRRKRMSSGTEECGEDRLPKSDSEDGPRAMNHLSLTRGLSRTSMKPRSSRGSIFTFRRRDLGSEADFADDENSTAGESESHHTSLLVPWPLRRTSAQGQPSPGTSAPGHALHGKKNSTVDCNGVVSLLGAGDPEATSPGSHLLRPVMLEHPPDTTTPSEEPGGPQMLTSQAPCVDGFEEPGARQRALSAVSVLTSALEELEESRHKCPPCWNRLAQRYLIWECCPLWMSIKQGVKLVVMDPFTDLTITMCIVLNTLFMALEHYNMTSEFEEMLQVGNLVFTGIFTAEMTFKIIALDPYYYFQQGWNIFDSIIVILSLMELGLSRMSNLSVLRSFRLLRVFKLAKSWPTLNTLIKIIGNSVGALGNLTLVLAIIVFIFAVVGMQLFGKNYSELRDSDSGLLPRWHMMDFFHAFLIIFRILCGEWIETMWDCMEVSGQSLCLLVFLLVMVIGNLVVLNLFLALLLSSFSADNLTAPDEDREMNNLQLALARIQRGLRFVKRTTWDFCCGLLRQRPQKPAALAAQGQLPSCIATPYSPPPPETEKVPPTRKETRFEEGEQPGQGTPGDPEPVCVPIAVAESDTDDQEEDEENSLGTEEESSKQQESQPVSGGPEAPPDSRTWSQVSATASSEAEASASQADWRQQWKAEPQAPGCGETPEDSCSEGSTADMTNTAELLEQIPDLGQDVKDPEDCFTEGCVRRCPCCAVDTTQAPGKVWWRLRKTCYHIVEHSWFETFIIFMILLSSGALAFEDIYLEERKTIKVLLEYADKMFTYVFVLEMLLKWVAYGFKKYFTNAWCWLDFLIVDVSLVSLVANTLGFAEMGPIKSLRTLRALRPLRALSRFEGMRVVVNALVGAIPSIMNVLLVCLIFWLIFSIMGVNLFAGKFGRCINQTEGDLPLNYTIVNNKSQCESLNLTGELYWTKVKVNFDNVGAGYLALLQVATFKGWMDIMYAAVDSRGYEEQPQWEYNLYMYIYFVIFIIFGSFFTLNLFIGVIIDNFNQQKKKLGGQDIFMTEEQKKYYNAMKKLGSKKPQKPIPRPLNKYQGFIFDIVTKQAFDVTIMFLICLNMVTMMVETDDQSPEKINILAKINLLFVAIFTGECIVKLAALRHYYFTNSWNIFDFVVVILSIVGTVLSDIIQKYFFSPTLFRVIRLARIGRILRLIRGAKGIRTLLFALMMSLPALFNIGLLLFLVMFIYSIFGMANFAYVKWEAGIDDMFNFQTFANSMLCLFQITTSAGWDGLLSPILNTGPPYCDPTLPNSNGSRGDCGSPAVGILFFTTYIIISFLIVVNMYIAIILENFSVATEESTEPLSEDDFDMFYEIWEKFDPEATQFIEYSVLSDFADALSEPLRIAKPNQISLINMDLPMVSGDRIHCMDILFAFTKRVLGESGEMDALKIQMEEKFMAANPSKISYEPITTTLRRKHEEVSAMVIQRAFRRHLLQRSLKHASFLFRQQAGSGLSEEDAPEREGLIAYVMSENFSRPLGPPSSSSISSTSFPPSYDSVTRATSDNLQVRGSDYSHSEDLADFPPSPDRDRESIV

Row | SMILES | inhibition at 10 µM (hNav1.1 (SCN1A)) [%] | inhibition at 3 µM [1, 2] [%] | inhibition at 3 µM [1, 3] [%]
1 | FC(F)(F)Oc1ccc(-c2ccc3onc(OCc4ncccn4)c3c2)cc1 [Example 1, 3-(pyrimidin-2-ylmethoxy)-5-(4-(trifluoromethoxy)phenyl)benzo[d]isoxazole] | 5.5 | – | –
2 | Cc1cc(OC(F)(F)F)ccc1-c1ccc2onc(OCc3ncccn3)c2c1 [Example 3, 5-(2-methyl-4-(trifluoromethoxy)phenyl)-3-(pyrimidin-2-ylmethoxy)benzo[d]isoxazole] | < 5 | 23.2 | 11.8
3 | COc1cc(OC(F)(F)F)ccc1-c1ccc2onc(OCc3ncccn3)c2c1 [Example 4, 5-(2-methoxy-4-(trifluoromethoxy)phenyl)-3-(pyrimidin-2-ylmethoxy)benzo[d]isoxazole] | 14.2 | 38 | 17.9
4 | Cc1ccnc(COc2noc3ccc(-c4ccc(OC(F)(F)F)cc4)cc23)n1 [Example 5, 3-((4-methylpyrimidin-2-yl)methoxy)-5-(4-(trifluoromethoxy)phenyl)benzo[d]isoxazole] | < 5 | 18 | < 5
5 | Fc1cc(C(F)(F)F)ccc1-c1ccc2onc(OCc3ncccn3)c2c1 [Example 6, 5-(2-fluoro-4-(trifluoromethyl)phenyl)-3-(pyrimidin-2-ylmethoxy)benzo[d]isoxazole] | < 5 | 29.8 | 12.6
6 | Cc1cc(-c2ccc3onc(OCc4ncccn4)c3c2)ccc1OC(F)(F)F [Example 7, 5-(3-methyl-4-(trifluoromethoxy)phenyl)-3-(pyrimidin-2-ylmethoxy)benzo[d]isoxazole] | < 5 | 16.3 | < 5
7 | Fc1cc(-c2ccc3onc(OCc4ncccn4)c3c2)ccc1Cl [Example 8, 5-(4-chloro-3-fluorophenyl)-3-(pyrimidin-2-ylmethoxy)benzo[d]isoxazole] | < 5 | 13.1 | < 5
8 | FC(F)(F)c1ccc(-c2ccc3onc(OCc4ncccn4)c3c2)cc1 [Example 9, 3-(pyrimidin-2-ylmethoxy)-5-(4-(trifluoromethyl)phenyl)benzo[d]isoxazole] | < 5 | 41.3 | 10.3
9 | FC(F)(F)Oc1cccc(-c2ccc3onc(OCc4ncccn4)c3c2)c1 [Example 10, 3-(pyrimidin-2-ylmethoxy)-5-(3-(trifluoromethoxy)phenyl)benzo[d]isoxazole] | < 5 | 16.4 | 5.7
10 | COc1cc2onc(OCc3ncccn3)c2cc1-c1ccc(Cl)c(F)c1 [Example 13, 5-(4-chloro-3-fluorophenyl)-6-methoxy-3-(pyrimidin-2-ylmethoxy)benzo[d]isoxazole] | 30.8 | 10.7 | < 5
11 | COc1cc2onc(OCc3ncccn3)c2cc1-c1ccc(OC(F)(F)F)c(C)c1 [Example 14, 6-methoxy-5-(3-methyl-4-(trifluoromethoxy)phenyl)-3-(pyrimidin-2-ylmethoxy)benzo[d]isoxazole] | 34.5 | 23.8 | 6.4
12 | COc1cc2onc(OCc3ncccn3)c2cc1-c1ccc(F)c(Cl)c1 [Example 15, 5-(3-chloro-4-fluorophenyl)-6-methoxy-3-(pyrimidin-2-ylmethoxy)benzo[d]isoxazole] | < 5 | 14.3 | < 5
13 | Cc1cc(-c2ccc(OC(F)(F)F)cc2)cc2c(OCc3ncccn3)noc12 [Example 16, 7-methyl-3-(pyrimidin-2-ylmethoxy)-5-(4-(trifluoromethoxy)phenyl)benzo[d]isoxazole] | 27.3 | 35.8 | < 5
14 | COc1cc(-c2ccc(OC(F)(F)F)cc2)cc2c(OCc3ncccn3)noc12 [Example 22, 7-methoxy-3-(pyrimidin-2-ylmethoxy)-5-(4-(trifluoromethoxy)phenyl)benzo[d]isoxazole] | 28.1 | 10.2 | < 5
15 | Cc1cc2onc(OCc3ncccn3)c2cc1-c1ccc(C(F)(F)F)cc1F [Example 28, 5-(2-fluoro-4-(trifluoromethyl)phenyl)-6-methyl-3-(pyrimidin-2-ylmethoxy)benzo[d]isoxazole] | < 5 | 21.6 | < 5
16 | FC(F)(F)Oc1ccc(-c2ccc3onc(OCC4CCO4)c3c2)cc1 (stereo not shown) [Example 42, 3-(oxetan-2-ylmethoxy)-5-(4-(trifluoromethoxy)phenyl)benzo[d]isoxazole] | < 5 | 27.6 | < 5
17 | CCn1ccnc1COc1noc2ccc(-c3ccc(OC(F)(F)F)cc3)cc12 [Example 47, 3-((1-ethyl-1H-imidazol-2-yl)methoxy)-5-(4-(trifluoromethoxy)phenyl)benzo[d]isoxazole] | 55.5 | 21.7 | 8.5
18 | FC(F)(F)Oc1ccc(-c2ccc3onc(OCc4ncco4)c3c2)cc1 [Example 53, 3-(oxazol-2-ylmethoxy)-5-(4-(trifluoromethoxy)phenyl)benzo[d]isoxazole] | < 5 | 43.4 | < 5
